Measured values taken from PMC7316778 (Nature Communications, 2020).
Where “and” joins values, the source holds several entries; their conditions need not be identical. Equal entries are not always repeated. Where two headings read alike, the source gives them in different places.

How the values were obtained:
BRSK1 (SAD1) = target: T1, BRSK1 (SAD1) (Homo sapiens, UniProt Q8TDC3); assay: SelectScreen kinase assay
T1 sequence (Q8TDC3 1-778): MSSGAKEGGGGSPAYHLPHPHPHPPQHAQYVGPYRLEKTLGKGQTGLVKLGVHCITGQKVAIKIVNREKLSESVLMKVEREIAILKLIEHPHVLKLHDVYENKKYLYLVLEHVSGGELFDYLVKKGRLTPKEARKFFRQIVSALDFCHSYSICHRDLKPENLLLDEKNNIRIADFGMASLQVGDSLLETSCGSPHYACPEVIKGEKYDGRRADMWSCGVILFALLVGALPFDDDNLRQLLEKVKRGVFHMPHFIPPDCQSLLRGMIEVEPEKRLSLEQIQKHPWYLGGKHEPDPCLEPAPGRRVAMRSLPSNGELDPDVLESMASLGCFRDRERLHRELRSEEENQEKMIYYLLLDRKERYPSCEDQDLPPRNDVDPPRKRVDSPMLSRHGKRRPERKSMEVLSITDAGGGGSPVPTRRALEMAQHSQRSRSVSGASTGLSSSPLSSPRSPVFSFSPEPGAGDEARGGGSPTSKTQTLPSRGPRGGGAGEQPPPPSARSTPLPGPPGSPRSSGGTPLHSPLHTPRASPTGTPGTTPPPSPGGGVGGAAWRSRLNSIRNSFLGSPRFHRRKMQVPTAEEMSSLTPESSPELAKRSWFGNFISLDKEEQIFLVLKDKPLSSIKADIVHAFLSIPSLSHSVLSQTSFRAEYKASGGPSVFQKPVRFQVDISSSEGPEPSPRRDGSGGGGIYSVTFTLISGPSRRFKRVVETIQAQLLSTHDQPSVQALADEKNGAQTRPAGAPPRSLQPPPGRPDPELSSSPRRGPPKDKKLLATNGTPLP
Protocol: (§3) Selectivity profiling assays were performed by the Invitrogen SelectScreen™ Services. […] The concentration of ATP was selected to be equal to the KM, unless indicated otherwise.

MAP4K4 (HGK) = MAP4K4 (HGK) (Homo sapiens, UniProt O95819); assay: SelectScreen kinase assay; conditions: 1 h, 1 μM WEL028, 1 h preincubation
Sequence of MAP4K4 (HGK) (O95819 whole entry): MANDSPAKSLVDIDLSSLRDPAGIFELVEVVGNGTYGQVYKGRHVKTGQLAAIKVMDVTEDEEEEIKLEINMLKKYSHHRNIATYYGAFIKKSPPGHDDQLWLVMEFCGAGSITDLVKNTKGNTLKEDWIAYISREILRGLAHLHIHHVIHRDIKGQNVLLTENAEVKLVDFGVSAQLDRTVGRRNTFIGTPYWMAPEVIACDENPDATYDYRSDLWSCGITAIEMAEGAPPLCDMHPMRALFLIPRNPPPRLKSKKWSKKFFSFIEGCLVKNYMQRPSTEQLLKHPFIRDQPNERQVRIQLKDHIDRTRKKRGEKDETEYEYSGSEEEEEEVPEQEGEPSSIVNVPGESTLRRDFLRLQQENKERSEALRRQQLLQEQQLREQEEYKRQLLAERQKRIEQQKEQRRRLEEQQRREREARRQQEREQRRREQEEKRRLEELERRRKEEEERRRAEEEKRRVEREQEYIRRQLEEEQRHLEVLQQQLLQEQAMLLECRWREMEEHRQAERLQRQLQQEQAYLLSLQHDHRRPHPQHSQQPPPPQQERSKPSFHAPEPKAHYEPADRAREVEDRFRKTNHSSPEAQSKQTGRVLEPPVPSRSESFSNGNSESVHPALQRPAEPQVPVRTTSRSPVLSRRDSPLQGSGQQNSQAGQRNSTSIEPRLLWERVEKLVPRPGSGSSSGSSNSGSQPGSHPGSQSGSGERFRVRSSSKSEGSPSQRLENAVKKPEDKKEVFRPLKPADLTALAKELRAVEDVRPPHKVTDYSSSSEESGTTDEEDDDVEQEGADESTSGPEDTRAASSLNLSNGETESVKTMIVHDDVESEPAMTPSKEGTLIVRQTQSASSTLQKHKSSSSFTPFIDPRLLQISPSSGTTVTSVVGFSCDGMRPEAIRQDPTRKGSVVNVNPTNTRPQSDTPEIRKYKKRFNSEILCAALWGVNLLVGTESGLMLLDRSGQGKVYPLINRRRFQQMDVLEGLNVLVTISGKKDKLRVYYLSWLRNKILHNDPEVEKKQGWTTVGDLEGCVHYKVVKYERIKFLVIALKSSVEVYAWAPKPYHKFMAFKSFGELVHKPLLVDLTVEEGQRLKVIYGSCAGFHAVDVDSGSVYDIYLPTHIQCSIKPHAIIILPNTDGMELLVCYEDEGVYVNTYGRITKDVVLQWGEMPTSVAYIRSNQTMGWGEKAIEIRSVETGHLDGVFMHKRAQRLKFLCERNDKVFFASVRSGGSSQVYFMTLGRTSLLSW
Protocol: as §3

ULK1 = target: T2, ULK1 (Homo sapiens, UniProt O75385); assay: SelectScreen kinase assay
T2 sequence (O75385 1-1050): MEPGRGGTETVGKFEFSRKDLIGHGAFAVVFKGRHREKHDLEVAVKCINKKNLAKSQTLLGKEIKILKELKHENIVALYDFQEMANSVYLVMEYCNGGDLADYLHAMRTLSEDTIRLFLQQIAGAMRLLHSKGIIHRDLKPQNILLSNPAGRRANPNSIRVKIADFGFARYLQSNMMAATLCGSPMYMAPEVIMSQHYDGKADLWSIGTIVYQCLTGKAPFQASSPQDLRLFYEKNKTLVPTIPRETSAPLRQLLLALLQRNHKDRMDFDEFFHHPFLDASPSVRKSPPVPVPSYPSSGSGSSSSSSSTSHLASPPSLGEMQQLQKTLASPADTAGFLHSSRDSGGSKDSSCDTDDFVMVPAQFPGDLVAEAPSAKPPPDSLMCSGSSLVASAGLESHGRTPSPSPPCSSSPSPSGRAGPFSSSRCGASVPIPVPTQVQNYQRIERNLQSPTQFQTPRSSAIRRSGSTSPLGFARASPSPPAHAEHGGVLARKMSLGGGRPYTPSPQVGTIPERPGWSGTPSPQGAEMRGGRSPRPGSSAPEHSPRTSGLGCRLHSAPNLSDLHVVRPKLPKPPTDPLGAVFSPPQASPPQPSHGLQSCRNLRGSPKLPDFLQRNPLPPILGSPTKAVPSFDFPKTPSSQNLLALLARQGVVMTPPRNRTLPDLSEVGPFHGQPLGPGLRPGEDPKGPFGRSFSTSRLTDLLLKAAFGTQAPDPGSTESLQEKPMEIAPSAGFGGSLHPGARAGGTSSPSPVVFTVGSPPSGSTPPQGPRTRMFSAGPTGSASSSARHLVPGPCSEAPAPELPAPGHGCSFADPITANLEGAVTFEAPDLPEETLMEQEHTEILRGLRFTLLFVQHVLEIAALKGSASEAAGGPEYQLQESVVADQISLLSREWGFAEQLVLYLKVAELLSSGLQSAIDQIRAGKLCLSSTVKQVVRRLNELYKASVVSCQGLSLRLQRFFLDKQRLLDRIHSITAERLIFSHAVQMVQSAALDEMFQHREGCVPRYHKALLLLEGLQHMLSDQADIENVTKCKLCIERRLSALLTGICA
Protocol: as §3

WT HL-60 neutrophils = assay: Phagocytosis assay with GFP-expressing E. coli; assay type: cell-based, human; conditions: Figure 7e, replicates, listed as WEL028
Protocol: (§1) HL-60 cells were differentiated to neutrophils as described above. Cells were counted and centrifuged (200g, 5 min), followed by resuspension in growth medium without antibiotics. Cells were incubated with vehicle or inhibitor (from 1000x concentrated stocks in DMSO) for 1 h at 37 °C prior to infection (1×10^6 cells in 900 µL in 12-well plate). Meanwhile, E. coli B834(DE3) constitutively expressing GFP^A206K were grown in LB medium to an OD600 of 0.4–1.0, after which bacteria were centrifuged (2000g, 5 min), washed and resuspended in PBS to appropriate density. Neutrophils were infected by addition of bacteria at multiplicity of infection (MOI) of 30 unless stated otherwise. Cells were then incubated for 1 h at 37 °C unless stated otherwise, after which cells were resuspended and transferred to Eppendorf tubes, washed in FACS buffer (1 mL, 500g, 3 min) and fixed in 1% PFA in PBS (15 min, 4 °C, in the dark). Samples were further processed as described above.
(§2) Events (generally 20,000 per condition) were gated by forward and side scatter (cells), side scatter area (singlets) and the percentage of GFP-positive cells and GFP mean fluorescence intensity (MFI) were determined based on background fluorescence for non-infected cells. The GREEN-B channel (525/30 filter) was used to detect GFP.

[1] = test system: FES^S700C HL-60 neutrophils; assay: Phagocytosis assay with GFP-expressing E. coli; assay type: cell-based, human; conditions: for Phagocytic index / GFP-positive cells (%) / Mean GFP intensity (RFU): listed as WEL028; for GFP-positive cells (%): Sup. Fig. 15a; for Mean GFP intensity (RFU): Sup. Fig. 15b
Protocol: as §1, §2

C#CCOc1ccc(Nc2ncc(Cl)c(Nc3ccccc3NC(=O)C=C)n2)c(OC)c1 [Compound 6]
inhibition at 1 µM (BRSK1 (SAD1); 1 h, 1 μM WEL028, 1 h preincubation): 2%
Inhibition at 1 µM (%) (BRSK1 (SAD1); BRSK1 (SAD1), 1 µM, ZLYTE, ATP Km app, listed as WEL028, 1 µM): 1%
inhibition at 1 µM (BRSK1 (SAD1); read-out: Inhibition at 1 µM (%), BRSK1 (SAD1), 1 µM, ZLYTE, ATP Km app): 2%
inhibition at 1 µM (MAP4K4 (HGK)): 7%
Inhibition (%) (ULK1; 1 μM WEL028, 1 h preincubation): 4%
Inhibition at 1 µM (%) (ULK1; 1 µM, LanthaScreen Binding, listed as WEL028, 1 µM): 4%
inhibition at 1 µM (ULK1; read-out: Inhibition at 1 µM (%), 1 µM, LanthaScreen Binding): 5%
Phagocytic index (WT HL-60 neutrophils): 160.957 and 207.068 and 250.511 and 251.311 and 284.865
Reduction of phagocytic index ([1]; 100 nM, 1 h, E. coli MOI 30, 1 h): 30–50%
Phagocytic index ([1]; Figure 7e, S700C, replicates): 145.478 and 171.315 and 187.921 and 222.417 and 183.286
Phagocytic index ([1]; Figure 7i, replicates): 197.442 and 178.118 and 223.309 and 208.369 and 195.015
Phagocytic index ([1]; MOI 0, Sup. Fig. 15d): 11.3713 and 7.7474 and 12.7423
Phagocytic index ([1]; MOI 5, Sup. Fig. 15d): 256.754 and 179.658 and 258.748
Phagocytic index ([1]; MOI 10, Sup. Fig. 15d): 353.426 and 268.67 and 311.603
Phagocytic index ([1]; MOI 30, Sup. Fig. 15d): 419.958 and 366.26 and 418.025
Phagocytic index ([1]; MOI 50, Sup. Fig. 15d): 485.281 and 414.473 and 534.485
GFP-positive cells (%) ([1]; infection time 0 min): 18.616% and 19.116% and 23.8538%
Mean GFP intensity (RFU) ([1]; infection time 0 min): 251.299 RFU and 272.27 RFU and 265.594 RFU
Phagocytic index ([1]; infection time 0 min, Sup. Fig. 15c): 46.7819 and 52.047 and 63.3542
GFP-positive cells (%) ([1]; infection time 15 min): 35.6181% and 40.0295% and 44.0403%
Mean GFP intensity (RFU) ([1]; infection time 15 min): 355.136 RFU and 341.544 RFU and 336.989 RFU
Phagocytic index ([1]; infection time 15 min, Sup. Fig. 15c): 126.493 and 136.719 and 148.411
GFP-positive cells (%) ([1]; infection time 30 min): 53.551% and 63.4482% and 62.11%
Mean GFP intensity (RFU) ([1]; infection time 30 min): 496.403 RFU and 400.363 RFU and 431.37 RFU
Phagocytic index ([1]; infection time 30 min, Sup. Fig. 15c): 265.829 and 254.023 and 267.924
GFP-positive cells (%) ([1]; infection time 60 min): 64.7116% and 74.5174% and 69.3761%
Mean GFP intensity (RFU) ([1]; infection time 60 min): 571.855 RFU and 482.086 RFU and 578.862 RFU
Phagocytic index ([1]; infection time 60 min, Sup. Fig. 15c): 370.057 and 359.238 and 401.592
